The values that follow come from ChEMBL document CHEMBL5550149, “Synthesis and evaluation of catecholamine derivatives as amyloid-beta aggregation inhibitors” (Bioorg Med Chem Lett, 2024).

In brackets after ≈: the same amount, converted by molar mass. Activity calls are given as the source filed them. The calls are words filed in the database; no cut-off is given here.

One may read the inhibition as the change of the read-out against control, counted positive when it falls. A word on the CC50: it is the concentration at which the toxic effect on the cells reaches its halfway point. A low value points to harm at low concentration. In general, thermodynamic solubility refers to solubility found after equilibrating the solid with the medium.

The target in series [1] is Amyloid-beta precursor protein (Homo sapiens) (UniProt P05067). As to the kind of experiment: Inhibition of amyloid beta (unknown origin) aggregation at 10 uM incubated for 20 hrs by Tht-based fluorescence spectroscopy assay relative to control.
Series [2] in a line: Cytotoxicity against rat PC12 cells measured for 24 hrs by WST-assay. The format is toxicity, cell-based, PC-12.
Series [3] is described as follows: Aqueous solubility of compound by shake flask method. The format is physicochemical. The following applies: water.
The target in series [4] is Amyloid-beta precursor protein (Homo sapiens) (UniProt P05067). As to the kind of experiment: Inhibition of amyloid beta (unknown origin) aggregation at 1 uM incubated for 20 hrs by Tht-based fluorescence spectroscopy assay relative to control.
For series [5] the target is unchanged. Put plainly: Inhibition of amyloid beta (unknown origin) aggregation assessed as reduction in beta-sheet formation by CD spectroscopy analysis.
For series [6] the target is unchanged. As to the kind of experiment: Inhibition of amyloid beta (unknown origin) aggregation assessed as aggregate diameter by […] analysis.
Series [7] has the same target. Put plainly: Inhibition of amyloid beta (unknown origin) aggregation assessed as change in aggregated monomers structure measured for 10 hrs by Tht-based fluorescence spectroscopy assay.
For series [8] the target is unchanged. As to the kind of experiment: Inhibition of amyloid beta (unknown origin) aggregation assessed as reduction in rod like structure by […] analysis.

Sequence of Amyloid-beta precursor protein (Homo sapiens) (P05067 whole entry): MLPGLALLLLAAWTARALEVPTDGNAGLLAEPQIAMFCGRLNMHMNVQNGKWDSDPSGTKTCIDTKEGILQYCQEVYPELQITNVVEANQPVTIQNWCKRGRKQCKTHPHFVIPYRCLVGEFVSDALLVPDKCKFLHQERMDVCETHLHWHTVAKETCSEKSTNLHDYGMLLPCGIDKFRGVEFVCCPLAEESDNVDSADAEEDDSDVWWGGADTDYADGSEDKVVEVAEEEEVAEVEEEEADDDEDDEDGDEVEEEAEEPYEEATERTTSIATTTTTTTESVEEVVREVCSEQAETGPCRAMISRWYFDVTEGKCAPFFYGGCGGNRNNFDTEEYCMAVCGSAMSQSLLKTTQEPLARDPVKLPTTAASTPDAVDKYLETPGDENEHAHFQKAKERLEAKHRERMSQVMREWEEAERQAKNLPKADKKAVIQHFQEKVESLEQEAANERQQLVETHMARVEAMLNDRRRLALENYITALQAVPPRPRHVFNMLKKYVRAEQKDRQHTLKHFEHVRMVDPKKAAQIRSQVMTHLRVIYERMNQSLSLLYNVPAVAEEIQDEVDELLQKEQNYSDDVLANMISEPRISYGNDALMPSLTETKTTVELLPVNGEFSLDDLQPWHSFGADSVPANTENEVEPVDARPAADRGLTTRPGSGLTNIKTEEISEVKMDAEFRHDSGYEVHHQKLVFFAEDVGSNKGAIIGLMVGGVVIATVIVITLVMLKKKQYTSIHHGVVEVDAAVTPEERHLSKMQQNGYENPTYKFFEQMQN

Regarding `O=C(N[C@H](CO)Cc1ccc(O)c(O)c1)c1cccc(O)c1O`, the inhibition turned out to be 80% in series [1] and 0% in series [4]. Also, the CC50 at 24 h in series [2] was > 150 µM. This compound had a thermodynamic solubility in series [3] of 1300 µM (≈ 415 µg/mL).
For `O=C(/C=C/c1ccccc1)NCCc1ccc(O)c(O)c1`, in that order: 92%, 40%, > 150 µM and 750 µM (≈ 212 µg/mL).
The matching figures for `O=C(Cc1cc(O)cc(O)c1)NCCc1ccc(O)c(O)c1`: 25%, 0%, > 150 µM and 1800 µM (≈ 546 µg/mL).
With `O=C(N[C@H](CO)Cc1ccc(O)c(O)c1)c1ccc(O)cc1`, the inhibition in series [1] came to 20%; in series [4] it was 0%. Further, the CC50 at 24 h in series [2] was > 150 µM. This compound yielded a solubility (thermodynamic) in series [3] of 1600 µM (≈ 485 µg/mL).
The matching figures for `COC(=O)[C@H](Cc1ccc(O)c(O)c1)NC(=O)c1cc(O)c(O)c(O)c1`: 95%, 30%, 150 µM and 377 µM (≈ 137 µg/mL).
Take `N[C@@H](Cc1ccc(O)c(O)c1)C(=O)O`: the inhibition turned out to be 31% in series [1] and 0% in series [4].
In the case of `O=C(/C=C/c1ccc(O)c(O)c1)NCCc1ccc(O)c(O)c1`, in series [5], the inhibition result was “inactive”. Further, the Activity in series [6] is 74 nm. Moreover, the inhibition entry in series [7] and in series [8] was “Active” throughout. The inhibition in series [1] is 100%; in series [4] it was 55%. In addition, the CC50 at 24 h in series [2] was > 150 µM. In addition, in series [3], the solubility (thermodynamic) amounted to 1500 µM (≈ 473 µg/mL).
For `O=C(Cc1cccc(O)c1O)NCCc1ccc(O)c(O)c1`, the inhibition in series [1] was 70%; in series [4], 0%. Moreover, in series [2], the CC50 at 24 h is > 150 µM. Besides, the solubility (thermodynamic) in series [3] came to 2000 µM (≈ 607 µg/mL).
With `O=C1C=C(c2ccc(O)c(O)c2)OC(c2cc(O)ccc2O)C1` (centres undefined), the thermodynamic solubility in series [3] stood at 2340 µM (≈ 735 µg/mL). For the same compound, the inhibition in series [4] is 76%.
Regarding `O=C(Cc1ccc(O)c(O)c1)NCCc1ccc(O)c(O)c1`, the inhibition in series [1] turned out to be 92%; in series [4], 29%. The cytotoxic concentration (CC50) at 24 h in series [2] was > 150 µM. In series [3], this compound showed a thermodynamic solubility of 2500 µM (≈ 758 µg/mL).
For `O=C(N[C@H](CO)Cc1ccc(O)c(O)c1)c1cc(O)ccc1O`, in that order: 70%, 28%, > 150 µM and 2500 µM (≈ 798 µg/mL).
For `O=C(N[C@H](CO)Cc1ccc(O)c(O)c1)c1ccc(O)c(O)c1`, the inhibition came to 90% in series [1] and 35% in series [4]. Further, the CC50 at 24 h in series [2] was > 150 µM. Moreover, in series [3], the thermodynamic solubility stood at 1200 µM (≈ 383 µg/mL).
On to `O=C(/C=C/c1ccc(O)c(O)c1)N[C@@H](Cc1ccc(O)c(O)c1)C(=O)O`, for which, in series [1], the inhibition was 86%. Moreover, in series [2], the 50% cytotoxic concentration (CC50) at 24 h is > 150 µM. In addition, the solubility (thermodynamic) in series [3] was found to be 1410 µM (≈ 507 µg/mL).
Take `O=C(N[C@H](CO)Cc1ccc(O)c(O)c1)c1cc(O)cc(O)c1`: the inhibition came to 22% in series [1] and 0% in series [4]. The CC50 at 24 h in series [2] was > 150 µM. The solubility (thermodynamic) in series [3] was determined as 1500 µM (≈ 479 µg/mL).
For `O=C(Cc1cc(O)c(O)c(O)c1)NCCc1ccc(O)c(O)c1`, the inhibition in series [1] turned out to be 90%; in series [4], 20%. Half-maximal cytotoxicity in series [2] (CC50 at 24 h) was put at 80 µM. The compound also displayed a thermodynamic solubility in series [3] of 3200 µM (≈ 1020 µg/mL).
In the case of `O=C(Cc1ccccc1)NCCc1ccc(O)c(O)c1`, the figures for the inhibition in series [1] and in series [4] were 30% and 0%, respectively. Besides, the CC50 at 24 h in series [2] was > 150 µM. Moreover, the solubility (thermodynamic) in series [3] was found to be 1300 µM (≈ 353 µg/mL).
Take `O=C(N[C@H](CO)Cc1ccc(O)c(O)c1)c1ccccc1`: the values for the inhibition in series [1] and in series [4] were 70% and 0%, respectively. The CC50 at 24 h in series [2] is > 150 µM. Moreover, the solubility (thermodynamic) in series [3] was determined as 700 µM (≈ 201 µg/mL).
Turning to `O=C(Cc1ccc(O)cc1)NCCc1ccc(O)c(O)c1`, the inhibition in series [1] came to 80%; in series [4] it was 18%. The CC50 at 24 h in series [2] was > 150 µM. The compound also showed a solubility (thermodynamic) in series [3] of 2000 µM (≈ 575 µg/mL).
Turning to `O=C(Cc1cc(O)ccc1O)NCCc1ccc(O)c(O)c1`, the figures for the inhibition in series [1] and in series [4] were 80% and 19%, respectively. In addition, the CC50 at 24 h in series [2] is > 150 µM. The compound also gave a solubility (thermodynamic) in series [3] of 800 µM (≈ 243 µg/mL).
For `O=C(N[C@H](CO)Cc1ccc(O)c(O)c1)c1cc(O)c(O)c(O)c1`, in that order: 85%, 16%, 80 µM and 3000 µM (≈ 1010 µg/mL).
